In assay [1] the test system is Staphylococcus aureus. Description: microbe, parasite or virus in culture. To be noted: 032.
Description: Antibacterial activity against methicillin resistant Staphylococcus aureus 032 assessed as inhibition of bacterial growth by CLSI protocol based serial dilution method
The test system of assay [2] is Staphylococcus aureus. Put plainly: Antibacterial activity against methicillin resistant Staphylococcus aureus assessed as inhibition zone by disc diffusion method. The assay is classed as functional. (In agar diffusion tests the substance spreads into inoculated agar from a disc or well.)
The subject of assay [3] is Staphylococcus aureus. Description: Antibacterial activity against methicillin resistant Staphylococcus aureus assessed as inhibition of bacterial growth by broth dilution technique. In kind it is functional.
The subject of assay [4] is Staphylococcus aureus. Description: Antimicrobial activity against methicillin resistant Staphylococcus aureus 3 assessed as inhibition of bacterial growth incubated for 16 to 20 hrs by CLSI protocol based Muller-Hinton broth method. To be noted: time 16-20 hrs. In kind it is functional.
The test system of assay [5] is Staphylococcus aureus. Description: Antimicrobial activity against methicillin resistant Staphylococcus aureus 1 assessed as inhibition of bacterial growth incubated for 16 to 20 hrs by CLSI protocol based Muller-Hinton broth method. In kind it is functional. The note with it: time 16-20 hrs.
Assay [6] deals with Staphylococcus aureus. Description: Antimicrobial activity against methicillin resistant Staphylococcus aureus 2 assessed as inhibition of bacterial growth incubated for 16 to 20 hrs by CLSI protocol based Muller-Hinton broth method. In kind it is functional. To be noted: time 16-20 hrs.
Assay [7] has as its system Staphylococcus aureus. Put plainly: Antibacterial activity against methicillin resistant Staphylococcus aureus 42 assessed as inhibition of bacterial growth. The assay is classed as functional.
For assay [8], the system named is Staphylococcus aureus. Description: Antibacterial activity against methicillin resistant Staphylococcus aureus 747 assessed as inhibition of bacterial growth. In kind it is functional.
Assay [9] deals with Staphylococcus aureus. Description: Antibacterial activity against methicillin resistant Staphylococcus aureus 128 assessed as inhibition of bacterial growth. In kind it is functional.
In assay [10] the test system is Staphylococcus aureus. Put plainly: Antibacterial activity against methicillin resistant Staphylococcus aureus 181 assessed as inhibition of bacterial growth. The assay is classed as functional.
Assay [11] has as its system Staphylococcus aureus. Description: Antibacterial activity methicillin resistant Staphylococcus aureus 2658 RCMB assessed as inhibition of bacterial growth by broth microdilution method. In kind it is functional. For orientation: In broth dilution the organism is exposed to a series of concentrations in liquid medium.
The subject of assay [12] is Staphylococcus aureus. Put plainly: Antibiofilm activity against methicillin resistant Staphylococcus aureus ATCC 43866 assessed as inhibition of biofilm formation incubated for 18 to 24 hrs by tissue culture plate method. The note with it: time 18-24 hrs. The assay is classed as functional.

In brackets after ≈: the same amount, converted by molar mass. Some results are limits rather than exact numbers.

`Cc1nc(/C(=C\c2coc3cc(C)c(Cl)cc3c2=O)c2ccc([N+](=O)[O-])cc2)no1` showed an MIC in [1] of 16 mg/L (≈ 37.8 µM).

As to `CCCCC/C=C/CCC(O)CCCCCCc1nnc(-c2ccco2)o1` (centres undefined), the “inhibition zone (IZ)” value in assay [2] is on record as 13.2 mm. Further, the MIC in assay [3] was found to be 12.5 mg/L (≈ 33.4 µM).

`CCn1cc(C(=O)O)c(=O)c2cc(F)c(N3CCNCC3)cc21` [NORFLOXACIN]: the MIC in assay [4] worked out at 1 mg/L (≈ 3.13 µM); in assay [5], 1 mg/L (≈ 3.13 µM); in assay [6], 2 mg/L (≈ 6.26 µM).

Consider `O=c1c(F)cnc2onc(-c3ccc(F)cc3F)n12`, for which the MIC in assay [7] is 96.4 mg/L (≈ 361 µM); in [8], at least 125 mg/L; in assay [9], 87.4 mg/L (≈ 327 µM); in assay [10], 100 mg/L (≈ 375 µM).

Molecule `Cc1nc(/C(=C\c2coc3ccc(Br)cc3c2=O)c2ccc([N+](=O)[O-])cc2)no1` returned an MIC in assay [1] of over 32 mg/L.

For the molecule `Cc1nc(/C(=C\c2coc3ccc(F)cc3c2=O)c2ccc([N+](=O)[O-])cc2)no1`, the MIC in assay [1] was over 32 mg/L.

`Cc1nc(-c2ccc(C(C)(C)C)cc2)sc1-c1nnc(NC(=N)c2ccccn2)o1`: the MIC in assay [11] was over 50 mg/L.

On to `CCCCCCCC/C=C/CCCCCCc1nnc(-c2ccccc2Cl)o1`, for which, in [2], the “inhibition zone (IZ)” value is 16.6 mm. Further, the MIC in [3] was 12.5 mg/L (≈ 31 µM).

Regarding `Cc1nc(-c2ccc(C(C)(C)C)cc2)sc1-c1nnc(NC(=N)c2ccncc2)o1`, the MIC in assay [11] was over 50 mg/L.

For the molecule `CCCC(O)C/C=C/CCCCCCc1nnc(-c2ccco2)o1` (centres undefined), the “inhibition zone (IZ)” value in assay [2] is recorded as 18.3 mm. For the same molecule, the MIC in [3] stood at 12.5 mg/L (≈ 37.6 µM).

On to `C=Cc1ccc(Oc2nnc(-c3cc(Br)c(Br)n3C)o2)c(OC)c1`, for which the MIC in [12] is 25 mg/L (≈ 54.9 µM).

On to `O=c1c(F)cnc2onc(-c3ccc(Cl)cc3Cl)n12`, for which the MIC is 116 mg/L (≈ 388 µM) in [7], at least 125 mg/L in assay [8], at least 125 mg/L in assay [9] and at least 125 mg/L in assay [10].

As for `Cn1c(-c2nnc(-c3cc(F)ccc3Cl)o2)cc(Br)c1Br`, the MIC in assay [12] came to 3.12 mg/L (≈ 7.18 µM).

In the case of `CCn1cc(C(=O)O)c(=O)c2cc(F)c(N3CCN(Cc4nnc(-c5cccc(C)c5)o4)CC3)cc21`, the MIC was 2 mg/L (≈ 4.07 µM) in assay [4], 1 mg/L (≈ 2.03 µM) in assay [5] and 1 mg/L (≈ 2.03 µM) in [6].

On to `O=c1c(F)cnc2onc(-c3c(F)cccc3F)n12`, for which the MIC in assay [7] is 122 mg/L (≈ 458 µM); in [8] it was at least 125 mg/L; in assay [9], at least 125 mg/L; in assay [10] it was 120 mg/L (≈ 447 µM).

With `Cc1ccc2occ(/C=C(/c3ccc([N+](=O)[O-])cc3)c3noc(C)n3)c(=O)c2c1`, the MIC in assay [1] was over 32 mg/L.

Take `C=CCCCCCCCc1nnc(-c2ccccc2Cl)o1`: the “inhibition zone (IZ)” value in [2] stood at 14.4 mm. Besides, in assay [3], the MIC stood at 12.5 mg/L (≈ 41 µM).

Take `Cn1c(-c2nnc(-c3ccccc3O)o2)cc(Br)c1Br`: the MIC in assay [12] came out at 6.25 mg/L (≈ 15.7 µM).

As to `Cc1nc(-c2ccc(C(C)(C)C)cc2)sc1-c1nnc(NC(=N)c2cccnc2)o1`, the MIC in [11] was over 50 mg/L.

As for `O=c1c(Br)cnc2onc(-c3cccc(F)c3F)n12`, the MIC in assay [7] was determined as 20.8 mg/L (≈ 63.4 µM); in [8], 42.1 mg/L (≈ 128 µM); in assay [9], 37.8 mg/L (≈ 115 µM); in assay [10], 42.1 mg/L (≈ 128 µM).

As to `CCCCC/C=C/CCC(O)CCCCCCc1nnc(-c2ccccc2Cl)o1` (centres undefined), the “inhibition zone (IZ)” value in assay [2] is listed as 19.7 mm. For the same molecule, the MIC in assay [3] worked out at 12.5 mg/L (≈ 29.8 µM).

On to `O=c1c(Br)cnc2onc(-c3cccc(Cl)c3Cl)n12`, for which the MIC in assay [7] is 86.2 mg/L (≈ 239 µM); in assay [8], at least 125 mg/L; in [9], 90.3 mg/L (≈ 250 µM); in assay [10], at least 125 mg/L.

Take `CCCCCCCCCCCCCCc1nnc(-c2ccccc2Cl)o1`: the “inhibition zone (IZ)” value in assay [2] is given as 12.1 mm. The MIC in assay [3] was found to be 12.5 mg/L (≈ 33.2 µM).

`CC[C@H]1OC(=O)[C@H](C)[C@@H](O[C@H]2C[C@@](C)(OC)[C@@H](O)[C@H](C)O2)[C@H](C)[C@@H](O[C@@H]2O[C@H](C)C[C@H](N(C)C)[C@H]2O)[C@](C)(O)C[C@@H](C)C(=O)[C@H](C)[C@@H](O)[C@]1(C)O` [ERYTHROMYCIN] registered an MIC in [1] of over 32 mg/L.

In the case of `C=CCCCCCCCc1nnc(-c2ccco2)o1`, the “inhibition zone (IZ)” value in assay [2] was 11.1 mm. Also, in assay [3], the MIC came to 12.5 mg/L (≈ 48 µM).

Regarding `O=c1c(F)cnc2onc(-c3ccccc3Cl)n12`, the MIC in assay [7], in assay [8], in assay [9] and in assay [10] was at least 125 mg/L each time.

With `CCCC(O)C/C=C/CCCCCCc1nnc(-c2ccccc2Cl)o1` (centres undefined), the “inhibition zone (IZ)” value in assay [2] is listed as 19.5 mm. Further, the MIC in assay [3] worked out at 12.5 mg/L (≈ 33.2 µM).

For the molecule `Cn1c(-c2nnc(-c3ccc(N)cc3)o2)cc(Br)c1Br`, in assay [12], the MIC was determined as 1.56 mg/L (≈ 3.92 µM).

In the case of `Cc1nc(-c2ccc(C(C)(C)C)cc2)sc1-c1nnc(NC(=N)N)o1`, the MIC in assay [11] was 6.25 mg/L (≈ 17.5 µM).

In the case of `Cn1c(-c2nnc(-c3ccc(Cl)cc3)o2)cc(Br)c1Br`, the MIC in [12] stood at 1.56 mg/L (≈ 3.74 µM).

On to `Cc1ccc(-c2noc3ncc(Br)c(=O)n23)cc1`, for which the MIC in assay [7] is 119 mg/L (≈ 388 µM); in assay [8], at least 125 mg/L; in assay [9], at least 125 mg/L; in assay [10] it was at least 125 mg/L.

(Values after ChEMBL document CHEMBL5241069, “A key review on oxadiazole analogs as potential methicillin-resistant Staphylococcus aureus (MRSA) activity: Structure-activity relationship studies” (Eur J Med Chem, 2021).)
